Reference: patent publication US9206191B2, “Indazoles for the treatment and prophylaxis of respiratory syncytial virus infection” (Hoffmann-La Roche Inc., priority 2012, dated 2015)

Assays:
[1] = system: RSV Long strain; test: Viral Cytopathic Effect (CPE) Assay; format: cell-based; details: human respiratory syncytial virus, 144 h, cell viability after 6 days, Cell Counting kit-8
[2] = single dose PK in male ICR mouse (IV and PO); format: in vivo; details: male ICR mice; for AUC(0-t) / half-life: mouse, plasma
Procedure: The single dose PK in male ICR mouse was performed to assess their pharmacokinetic properties. Two groups of animals were dosed via either bolus intravenous (IV) or oral gavage (PO) of the respective compound. The animals for oral administration were fasted overnight prior to dosing and food was resumed 4 hours postdose. Blood samples (approximately 400 μL) were collected via cardiac puncture after euthanasia by carbon dioxide inhalation at 2 min, 5 min, 15 min, 30 min, 1 h, 2 h, 4 h, 6 h, 8 h, and 24 h postdose for IV group, and at 5 min, 15 min, 30 min, 1 h, 2 h, 4 h, 6 h, 8 h, and 24 h postdose for PO group. Blood samples were placed into tubes containing sodium heparin and centrifuged at 8000 rpm for 6 minutes at 4° C. to separate plasma from the samples. Following centrifugation, the resulting plasma was transferred to clean tubes for bioanalysis on LC/MS/MS. The pharmacokinetic parameters were calculated using non-compartmental module of WinNonlin® Professional 5.2.

[3] = system: RSV; details: Phase III clinical trials; cited from earlier work
[4] = system: RSV infection; details: intramuscularly at 15 mg/kg once a month for the duration of RSV season; selected infants; cited from earlier work

CS(=O)(=O)c1nn(Cc2nc3cc(Cl)ccc3n2CC2COC2)c2cnccc12 [Example 2-22, 1-{[5-Chloro-1-(oxetan-3-ylmethyl)-1H-benzimidazol-2-yl]methyl}-3-(methylsulfonyl)-1H-pyrazolo[3,4-c]pyridine]
EC50 [1]: 6 nM | CLz ([2]; IV (1 mg/Kg)): 16.9 mL/min/kg | F ([2]; PO (12.2 mg/kg)): 23.8% | AUC(0-t) ([2]; IV (1 mg/Kg)): 976 ng·h/mL | half-life ([2]; IV (1 mg/Kg)): 93 min | AUC(0-t) ([2]; PO (12.2 mg/kg)): 2430 ng·h/mL | half-life ([2]; PO (12.2 mg/kg)): 147 min

motavizumab: A newer version monoclonal antibody, designed as potential replacement of palivizumab
benefit over palivizumab [3]: failed to show additional benefit over palivizumab

CS(=O)(=O)c1nn(Cc2nc3cc(Cl)ccc3n2CCC(F)(F)F)c2cnccc12 [Example 2-21, 1-{[5-Chloro-1-(3,3,3-trifluoropropyl)-1H-benzimidazol-2-yl]methyl}-3-(methylsulfonyl)-1H-pyrazolo[3,4-c]pyridine]
EC50 [1]: 19.1 nM | CLz ([2]; IV (1.65 mg/Kg)): 10.6 mL/min/kg | F ([2]; PO (8.27 mg/kg)): 37.1% | AUC(0-t) ([2]; IV (1.65 mg/Kg)): 2590 ng·h/mL | half-life ([2]; IV (1.65 mg/Kg)): 169 min | AUC(0-t) ([2]; PO (8.27 mg/kg)): 4800 ng·h/mL | half-life ([2]; PO (8.27 mg/kg)): 190 min

palivizumab: a humanized monoclonal antibody against RSV fusion (F) protein approved for prophylaxis in high-risk infants
reduction of hospitalization rate caused by RSV infection [4]: 45-55%

CS(=O)(=O)c1nn(Cc2nc3cc(Cl)ccc3n2CCCC(F)(F)F)c2cnccc12 [Example 4-3, 1-{[5-Chloro-1-(4,4,4-trifluorobutyl)-1H-benzimidazol-2-yl]methyl}-3-(methylsulfonyl)-1H-pyrazolo[3,4-c]pyridine]
EC50 [1]: 5 nM | CLz ([2]; IV (2 mg/kg)): 43.4 mL/min/kg | F ([2]; PO (6 mg/kg)): 46.0% | AUC(0-t) ([2]; IV (2 mg/kg)): 760 ng·h/mL | half-life ([2]; IV (2 mg/kg)): 75.6 min | AUC(0-t) ([2]; PO (6 mg/kg)): 1050 ng·h/mL | half-life ([2]; PO (6 mg/kg)): 49.9 min

CS(=O)(=O)CCCn1c(Cn2cc(S(C)(=O)=O)c3ccncc32)nc2cc(Cl)ccc21 [Example 1-4, 5-Chloro-1-[3-(methylsulfonyl)propyl]-2-{[3-(methylsulfonyl)-1H-pyrrolo[2,3-c]pyridin-1-yl]methyl}-1H-benzimidazole]
EC50 [1]: 82 nM

CC1(CCn2c(Cn3nc(S(C)(=O)=O)c4ccncc43)nc3cc(Cl)ccc32)COC1 [Example 2-25, 1-({5-Chloro-1-[2-(3-methyloxetan-3-yl)ethyl]-1H-benzimidazol-2-yl}methyl)-3-(methylsulfonyl)-1H-pyrazolo[3,4-c]pyridine]
EC50 [1]: 6.79 nM

CS(=O)(=O)c1nn(Cc2nc3cc(Cl)ccc3n2[C@@H]2CCN(CC(F)(F)F)C2)c2cnccc12 [Example 2-20, 1-({5-Chloro-1-[(3R)-1-(2,2,2-trifluoroethyl)pyrrolidin-3-yl]-1H-benzimidazol-2-yl}methyl)-3-(methylsulfonyl)-1H-pyrazolo[3,4-c]pyridine]
EC50 [1]: 188 nM
